Assay results: patent publication EP0371438B1, “3,5-Di-tertiary-butyl-4-hydroxyphenyl-1,3,4-thiadiazoles, and oxadiazoles and 3,5-di-tertiary-butyl-4-hydroxiphenyl- 1,2,4-thiadiazoles, -oxadiazoles as antiinflammatory agents” (WARNER-LAMBERT COMPANY, priority 1988, dated 1990)

Experiments:
[1] = tested on: gastric ulcers; test: Gastric ulcerogenicity (UD); format: in vivo, Male outbred Wistar rats; conditions: PO, dose which produces a 50% occurrence of ulcers in rats; result given @ 200; compound tested as its sodium salt
Method: Gastric Ulcerogenicity (UD): Protocol
Male outbred Wistar rats (100-250 gms) are fasted for 24 hours. After fasting, test compounds are administered orally (in 2 ml/kg of 0.5% hydroxypropyl methylcellulose) and the rats are denied access to food and water for six more hours. The rats are then sacrificed with CO₂ so that the stomachs can be removed, opened along the greater curvature, and evaluated for the presence of gastric ulcers. Results are expressed as the percent of rats with gastric ulcers at a given dose or as the UD₅₀ (the dose which causes ulcers in 50% of the rats).

[2] = molecular target: T1, 5-lipoxygenase (Rattus norvegicus, UniProt P12527); test: ARBL whole cell 5-lipoxygenase assay (LTB4 formation, RIA); format: cell-based; conditions: IC50 for LTB4 inhibition; RBL-1 cells, calcium ionophore A23187
T1 construct: host or cells: RBL-1 (rat basophilic leukemia)
T1 sequence (P12527 1-673): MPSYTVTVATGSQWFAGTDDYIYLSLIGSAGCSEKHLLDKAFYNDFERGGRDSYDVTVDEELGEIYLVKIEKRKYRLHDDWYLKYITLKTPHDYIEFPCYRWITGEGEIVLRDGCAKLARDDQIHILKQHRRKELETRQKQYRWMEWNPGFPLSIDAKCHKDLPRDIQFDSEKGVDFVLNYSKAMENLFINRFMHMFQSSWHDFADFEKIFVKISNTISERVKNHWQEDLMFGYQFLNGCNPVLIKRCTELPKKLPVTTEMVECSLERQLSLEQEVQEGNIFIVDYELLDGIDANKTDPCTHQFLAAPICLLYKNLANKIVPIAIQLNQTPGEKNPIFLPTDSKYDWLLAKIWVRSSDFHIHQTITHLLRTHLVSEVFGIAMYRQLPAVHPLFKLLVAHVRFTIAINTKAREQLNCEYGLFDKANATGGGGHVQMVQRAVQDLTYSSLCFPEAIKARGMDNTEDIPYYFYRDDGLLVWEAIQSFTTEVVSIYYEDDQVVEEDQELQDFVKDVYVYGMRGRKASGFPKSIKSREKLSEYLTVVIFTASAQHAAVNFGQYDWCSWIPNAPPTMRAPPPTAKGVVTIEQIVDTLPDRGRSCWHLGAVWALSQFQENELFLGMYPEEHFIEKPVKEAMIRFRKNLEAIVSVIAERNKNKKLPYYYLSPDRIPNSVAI
Method: (§1) ARBL/ARBC Whole Cell 5-Lipoxygenase and Cyclooxygenase Assays
(§2) The rat basophilic leukemia cell line (RBL-1) was obtained from the American Type Culture Collection (Rockville, MD).
(§3) Radioimmunoassay (RIA) kits of LTB₄ and [drawing 16] were obtained from Amersham (Arlington Heights, IL) and Seragen (Boston, MA), respectively.
(§4) RBL-1 cells are grown in suspension culture in Eagle's minimum essential medium supplemented with 12% fetal bovine serum at 37°C in an incubator supplied with air-5% carbon dioxide. Cells are harvested by centrifugation. They are washed with cold phosphate buffered saline pH 7.4 (PBS; NaCl, 7.1 g; Na₂HPO₄, 1.15 g; KH₂PO₄, 0.2 g; and KCl, 0.2 g/l). Cells are finally suspended in PBS containing 1.0 mM calcium at a density of 2x10⁶ cells/ml. Cells are incubated with and without test agent (in DMSO) (1% DMSO is without effect on arachidonic acid metabolism) for ten minutes at room temperature. Calcium ionophore A23187 (5 »M) is added and cells are incubated for seven minutes at 37°C. The reaction is stopped by chilling the tubes on ice for ten minutes. Cells are separated by centrifugation and the supernatant is stored at -20°. Aliquots (100 »l) are analyzed for LTB₄ and [drawing 17] using radioimmunoassay kits as provided by the supplier.
(§5) Table 1 contains biochemical data obtained from this whole cell assay as IC₅₀s which are calculated as the amount of test compound causing 50% inhibition of LTB₄ or [drawing 18] formation.

[3] = tested on: cyclooxygenase; test: ARBC whole cell cyclooxygenase assay (PGF2α formation, RIA); format: cell-based, rat; conditions: IC50 for PGF2α inhibition; RBL-1 cells, calcium ionophore A23187
Method: as §1, §2, §3, §4, §5

[4] = tested on: Carrageenan-Induced Rat Foot Paw Edema; test: Carrageenan-induced rat foot paw edema-2 (CFE-2) assay; format: in vivo; conditions: 5 h, PO, dosed one hour before carrageenan, edema measured five hours after, compound tested as its sodium salt, read-out: CFE-2 ID₄₀
Method: Carrageenan-Induced Rat Foot Paw Edema-2 (CFE-2) Assay: Protocol
Carrageenan solution (1% w/v) is prepared by dissolving 100 mg carrageenan (Marine Colloidal Div., Springfield, NJ) in 10 ml of sterile saline (0.9%) solution (Travenol). The solution is vortexed for 30 to 45 minutes. Animals are dosed with compound one hour before carrageenan challenge. Foot paw edema is induced by injecting 0.10 ml of the 1% carrageenan subcutaneously into the plantar portion of the right hind paw of each rat under light anesthesia. Initial foot paw volume is measured immediately following carrageenan challenge using mercury plethysmography (Buxco Electronics). Edema is measured five hours after carrageenan. The difference between the five-hour and the initial paw volume is expressed as delta edema. The delta edema for each test group of animals is used to calculate the percent inhibition of edema achieved by the compound at the test dose compared with the vehicle control group. The ID₄₀ (the dose at which swelling is inhibited by 40%) is calculated by probit analysis for the dose at which 40 percent inhibition occurs.

[5] = tested on: Mycobacterium - Induced Rat Footpad Edema; test: Mycobacterium-induced rat footpad edema assay (MFE); format: in vivo; conditions: PO, swelling 72 hours after injection, compound tested as its sodium salt, read-out: MFE ID₄₀
Method: Mycobacterium - Induced Rat Footpad Edema Assay (MFE): Protocol Mycobacterium butyricum (5 mg/ml) is suspended in paraffin oil by sonication for ten minutes in an ice bath. Footpad edema is induced on Day 0 by injecting 0.1 ml of the Mycobacterium mixture into the left hindpaw of lightly anesthetized rats. Swelling in the injected hindpaw is determined by mercury plethysmography 72 hours after injection. Groups of rats are treated with test compounds (suspended in 0.5% hydroxypropyl methylcellulose with 0.2% Tween-80) or vehicle one hour before Mycobacterium injection and on Days 1 and 2. Inhibition of swelling is determined by comparing the change in hindpaw volume in compound-and vehicle-treated rats. An ID₄₀ (the dose at which swelling is inhibited by 40%) is calculated by probit analysis.

| Structure (SMILES) | IC50 [2] [µM] | IC50 [3] [µM] | UD₅₀ [1] | ED40 [4] [mg/kg] | ED40 [5] [mg/kg] |
| --- | --- | --- | --- | --- | --- |
| CC(C)(C)c1cc(-c2n[nH]c(=S)o2)cc(C(C)(C)C)c1O [Example 8, 5-[3,5-Bis(1,1-dimethylethyl)-4-hydroxyphenyl]-1,3,4-oxadiazole-2(3H)-thione] | 10 | 8 |  |  |  |
| CC(C)(C)c1cc(-c2n[nH]c(=O)[nH]2)cc(C(C)(C)C)c1O [Example 15, 5-[3,5-Bis(1,1-dimethylethyl)-4-hydroxyphenyl]-2,4-dihydro-3H-1,2,4-triazol-3-one] | 4.5 | 5.5 |  |  |  |

More lines, in order of falling IC50 [2], values ahead:

| IC50 [2] [µM] | IC50 [3] [µM] | Structure (SMILES) | UD₅₀ [1] | ED40 [4] [mg/kg] | ED40 [5] [mg/kg] |
| --- | --- | --- | --- | --- | --- |
| 5.7 | 0.86 | CC(C)(C)c1cc(-c2nnc(S)s2)cc(C(C)(C)C)c1O [Example 4, 5-[3,5-Bis(1,1-dimethylethyl)-4-hydroxyphenyl]-1,3,4-thiadiazole-2(3H)-thione] | N @ 200 (N is 0% of rats having ulcers at 200 mg.) | 1.9 | 3.2 |
| 1.4 | 2.5 | CC(C)(C)c1cc(-c2n[nH]c(=O)o2)cc(C(C)(C)C)c1O [Example 7, 5-[3,5-Bis(1,1-dimethylethyl)-4-hydroxyphenyl]-1,3,4-oxadiazol-2(3H)-one] |  |  |  |
| 1.4 | 0.13 | CC(C)(C)c1cc(-c2nnc(N)s2)cc(C(C)(C)C)c1O [Example 10, 4-(5-Amino-1,3,4-thiadiazol-2-yl)-2,6-bis(1,1-dimethylethyl)phenol] |  |  |  |
